Reference: ChEMBL document CHEMBL4811298, “Discovery of novel class of histone deacetylase inhibitors as potential anticancer agents” (Bioorg Med Chem, 2021)
Activity calls are given as the source filed them. The rule behind the calls is not given here.

Legend:
MCF7 [1] = assay: Induction of apoptosis in human MCF7 cells assessed as downregulation of c-Myc protein expression at 1 to 3 uM measured after 48 hrs western blot analysis; type: functional, cell-based; conditions: dose 1-3 µM
A549 = assay: Antiproliferative activity against human A549 cells assessed as reduction in cell viability incubated for 48 hrs by SRB assay; type: functional, cell-based; conditions: A549, 48 h
Histone deacetylase 7 = target: T1, Histone deacetylase 7 (Homo sapiens, UniProt Q8WUI4); assay: Inhibition of N-terminal GST-tagged human HDAC7 (518 to end residues) expressed in baculovirus-infected Sf9 cells assessed as reduction in 7-amino-4-methylcoumarin release measured every 5 mins by fluorescence based analysis
T1 sequence (Q8WUI4 whole entry): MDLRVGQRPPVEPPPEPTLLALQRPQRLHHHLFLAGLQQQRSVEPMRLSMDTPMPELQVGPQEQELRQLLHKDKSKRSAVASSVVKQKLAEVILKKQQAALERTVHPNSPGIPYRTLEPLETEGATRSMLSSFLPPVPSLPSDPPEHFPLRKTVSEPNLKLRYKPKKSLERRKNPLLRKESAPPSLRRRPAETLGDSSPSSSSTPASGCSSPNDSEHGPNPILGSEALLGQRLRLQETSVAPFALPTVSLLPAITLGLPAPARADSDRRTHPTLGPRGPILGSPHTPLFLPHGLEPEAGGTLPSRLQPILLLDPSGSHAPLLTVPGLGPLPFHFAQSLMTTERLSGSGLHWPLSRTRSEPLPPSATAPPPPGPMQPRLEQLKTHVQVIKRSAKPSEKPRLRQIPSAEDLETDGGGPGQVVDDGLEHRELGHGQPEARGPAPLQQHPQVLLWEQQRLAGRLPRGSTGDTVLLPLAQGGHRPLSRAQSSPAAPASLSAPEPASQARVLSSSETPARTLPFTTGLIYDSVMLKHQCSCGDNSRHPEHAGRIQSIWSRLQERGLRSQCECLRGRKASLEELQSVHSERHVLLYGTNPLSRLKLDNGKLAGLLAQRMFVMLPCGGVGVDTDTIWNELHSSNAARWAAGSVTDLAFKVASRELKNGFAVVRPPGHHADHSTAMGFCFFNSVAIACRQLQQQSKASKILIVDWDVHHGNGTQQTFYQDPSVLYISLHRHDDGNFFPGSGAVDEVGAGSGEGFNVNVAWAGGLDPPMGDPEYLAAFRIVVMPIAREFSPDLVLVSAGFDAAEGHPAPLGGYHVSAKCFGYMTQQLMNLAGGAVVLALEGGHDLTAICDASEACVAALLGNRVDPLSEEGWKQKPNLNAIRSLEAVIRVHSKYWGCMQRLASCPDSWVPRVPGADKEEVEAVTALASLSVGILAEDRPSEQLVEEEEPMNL

MCF7 [2] = assay: Induction of apoptosis in human MCF7 cells assessed as downregulation of c-Myc gene expression at 1 uM measured after 24 hrs whole transcriptome analysis; type: functional, cell-based
MCF7 [3] = assay: Upregulation of NFkB2 gene expression in human MCF7 cells at 3 uM incubated for 24 hrs by whole transcriptome analysis; type: functional, cell-based
MCF7 [4] = assay: Antiproliferative activity against human MCF7 cells assessed as reduction in cell viability incubated for 48 hrs by SRB assay; type: functional, cell-based; conditions: MCF7, 48 h
[5] = target: Histone deacetylase (Homo sapiens) (UniProt Q13547+O15379+Q9UBN7+Q92769+Q9UQL6+Q8WUI4+Q9BY41+Q96DB2+P56524+Q9UKV0+Q969S8); assay: Inhibition of HDAC in human MCF7 cells assessed as increase in acetylated histone H4 mRNA level at 3 uM incubated for 24 hrs by whole transcriptome analysis; type: cell-based
Histone deacetylase 2 = Histone deacetylase 2 (Homo sapiens, UniProt Q92769); type: cell-based, Sf9
MCF7 [6] = assay: Induction of cell cycle arrest in human MCF7 cells assessed as accumulation at subG1 phase at 1 uM incubated for 24 to 72 hrs by PI staining based flow cytometric analysis; type: functional; conditions: time 24-72 hrs
Histone deacetylase 1 = Histone deacetylase 1 (Homo sapiens, UniProt Q13547); assay: (§1) Inhibition of C-terminal FLAG/His-tagged human recombinant HDAC1 (1 to 482 residues) expressed in baculovirus-infected Sf9 cells assessed as reduction in 7-amino-4-methylcoumarin release using fluorogenic HDAC substrate 3 measured every 5 mins by fluorescence based analysis
Histone deacetylase 9 = Histone deacetylase 9 (Homo sapiens, UniProt Q9UKV0); assay: Inhibition of C-terminal His-tagged human HDAC9 (604 to 1066 residues) expressed in baculovirus-infected Sf9 cells assessed as reduction in 7-amino-4-methylcoumarin release measured every 5 mins by fluorescence based analysis
Histone deacetylase 4 = Histone deacetylase 4 (Homo sapiens, UniProt P56524); assay: Inhibition of N-terminal GST-tagged/C-terminal His-tagged human recombinant HDAC4 (627 to 1084 residues) expressed in baculovirus-infected Sf9 cells assessed as reduction in 7-amino-4-methylcoumarin release measured every 5 mins by fluorescence based analysis
MCF7 [7] = assay: Downregulation of SIRT4 gene expression in human MCF7 cells at 3 uM incubated for 24 hrs by whole transcriptome analysis; type: functional, cell-based
MCF7 [8] = assay: Induction of apoptosis in human MCF7 cells assessed as reduction in Bcl3 gene expression at 3 uM incubated for 24 hrs by whole transcriptome analysis; type: functional, cell-based
MCF7 [9] = assay: Induction of apoptosis in human MCF7 cells assessed as reduction in Bcl2 gene expression at 3 uM incubated for 24 hrs by whole transcriptome analysis; type: functional, cell-based
MCF7 [10] = assay: Induction of cell cycle arrest in human MCF7 cells assessed as accumulation at G2/M phase at 1 uM incubated for 4 hrs by PI staining based flow cytometric analysis; type: functional
[11] = target: Histone deacetylase 3/Nuclear receptor corepressor 2 (HDAC3/NCoR2) (Homo sapiens, UniProt O15379); assay: as §1, with “His-tagged” for “FLAG/His-tagged”, “full length HDAC3” for “HDAC1”, “428 residues)/N-terminal GST-tagged human recombinant NCOR2 (395 to 489” for “482”
Histone deacetylase 5 [12] = target: T2, Histone deacetylase 5 (Homo sapiens, UniProt Q9UQL6); assay: Inhibition of N-terminal GST-tagged human recombinant full length HDAC5 expressed in baculovirus-infected Sf9 cells assessed as reduction in 7-amino-4-methylcoumarin release measured every 5 mins by fluorescence based analysis
MCF7 [13] = assay: Downregulation of SIRT2 gene expression in human MCF7 cells at 3 uM incubated for 24 hrs by whole transcriptome analysis; type: functional, cell-based
MCF7 [14] = assay: Induction of cell cycle arrest in human MCF7 cells assessed as accumulation at G2/M phase at 1 uM incubated for 24 hrs by PI staining based flow cytometric analysis; type: functional
MCF7 [15] = assay: Induction of apoptosis in human MCF7 cells assessed as increase in caspase 3/7 activity at 1 to 3 uM measured after 48 hrs by ELISA; type: functional, cell-based; conditions: dose 1-3 µM
MCF7 [16] = assay: Induction of cell cycle arrest in human MCF7 cells assessed as accumulation at G1/S phase at 1 uM incubated for 4 hrs by PI staining based flow cytometric analysis; type: functional
MCF7 [17] = assay: Upregulation of SIRT4 gene expression in human MCF7 cells at 3 uM incubated for 24 hrs by whole transcriptome analysis; type: functional, cell-based
MCF7 [18] = assay: Upregulation of SIRT2 gene expression in human MCF7 cells at 3 uM incubated for 24 hrs by whole transcriptome analysis; type: functional, cell-based
MCF7 [19] = assay: Induction of cell cycle arrest in human MCF7 cells assessed downregulation of E2F1 gene expression at 3 uM incubated for 24 hrs by whole transcriptome analysis; type: functional, cell-based
MCF7 [20] = assay: Induction of cell cycle arrest in human MCF7 cells assessed downregulation of CDK2 gene expression at 3 uM incubated for 24 hrs by whole transcriptome analysis; type: functional, cell-based
MCF7 [21] = assay: Induction of cell cycle arrest in human MCF7 cells assessed downregulation of RB1 gene expression at 3 uM incubated for 24 hrs by whole transcriptome analysis; type: functional, cell-based
MCF7 [22] = assay: Induction of cell cycle arrest in human MCF7 cells assessed downregulation of CDK6 gene expression at 3 uM incubated for 24 hrs by whole transcriptome analysis; type: functional, cell-based
MCF7 [23] = assay: Induction of cell cycle arrest in human MCF7 cells assessed downregulation of CDK1 gene expression at 3 uM incubated for 24 hrs by whole transcriptome analysis; type: functional, cell-based
MCF7 [24] = assay: Downregulation of NFkB2 gene expression in human MCF7 cells at 3 uM incubated for 24 hrs by whole transcriptome analysis; type: functional, cell-based
MCF7 [25] = assay: Induction of cell cycle arrest in human MCF7 cells assessed downregulation of CDK4 gene expression at 3 uM incubated for 24 hrs by whole transcriptome analysis; type: functional, cell-based
Histone deacetylase 5 [26] = target: T2, Histone deacetylase 5; assay: Potency index, ratio of vorinostat IC50 to test compound IC50 for Inhibition of N-terminal GST-tagged human recombinant full length HDAC5 expressed in baculovirus-infected Sf9 cells assessed as reduction in 7-amino-4-methylcoumarin release measured every 5 mins by fluorescence based analysis

Sequence of Histone deacetylase 1 (Q13547 whole entry, the tested form may be a part): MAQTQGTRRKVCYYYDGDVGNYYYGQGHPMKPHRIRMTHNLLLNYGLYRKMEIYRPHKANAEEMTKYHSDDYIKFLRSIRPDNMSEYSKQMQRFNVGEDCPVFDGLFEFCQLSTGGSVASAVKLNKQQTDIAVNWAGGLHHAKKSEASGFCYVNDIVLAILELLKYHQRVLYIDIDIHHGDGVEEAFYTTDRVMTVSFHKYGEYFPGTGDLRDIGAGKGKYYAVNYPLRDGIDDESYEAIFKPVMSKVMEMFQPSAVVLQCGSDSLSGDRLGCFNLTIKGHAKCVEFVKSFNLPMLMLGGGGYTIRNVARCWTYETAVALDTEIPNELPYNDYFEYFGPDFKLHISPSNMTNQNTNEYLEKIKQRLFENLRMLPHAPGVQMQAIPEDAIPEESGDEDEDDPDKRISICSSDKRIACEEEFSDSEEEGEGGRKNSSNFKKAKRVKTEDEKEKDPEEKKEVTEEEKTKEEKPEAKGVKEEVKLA
Sequence of Histone deacetylase 3/Nuclear receptor corepressor 2 (HDAC3/NCoR2) (O15379 whole entry): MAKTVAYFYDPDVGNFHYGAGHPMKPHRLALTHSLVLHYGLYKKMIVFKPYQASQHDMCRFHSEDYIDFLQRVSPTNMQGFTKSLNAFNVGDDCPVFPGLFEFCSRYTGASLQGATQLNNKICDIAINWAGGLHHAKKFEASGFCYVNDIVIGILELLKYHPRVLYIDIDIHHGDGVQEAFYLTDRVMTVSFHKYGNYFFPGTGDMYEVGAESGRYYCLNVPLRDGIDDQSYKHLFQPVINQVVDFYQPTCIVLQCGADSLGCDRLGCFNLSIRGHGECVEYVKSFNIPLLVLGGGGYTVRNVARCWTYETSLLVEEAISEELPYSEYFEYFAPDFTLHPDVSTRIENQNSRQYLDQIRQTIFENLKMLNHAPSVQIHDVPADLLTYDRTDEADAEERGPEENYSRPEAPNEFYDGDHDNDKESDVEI
Sequence of Histone deacetylase 3/Nuclear receptor corepressor 2 (HDAC3/NCoR2) (Q9Y618 whole entry, further chain): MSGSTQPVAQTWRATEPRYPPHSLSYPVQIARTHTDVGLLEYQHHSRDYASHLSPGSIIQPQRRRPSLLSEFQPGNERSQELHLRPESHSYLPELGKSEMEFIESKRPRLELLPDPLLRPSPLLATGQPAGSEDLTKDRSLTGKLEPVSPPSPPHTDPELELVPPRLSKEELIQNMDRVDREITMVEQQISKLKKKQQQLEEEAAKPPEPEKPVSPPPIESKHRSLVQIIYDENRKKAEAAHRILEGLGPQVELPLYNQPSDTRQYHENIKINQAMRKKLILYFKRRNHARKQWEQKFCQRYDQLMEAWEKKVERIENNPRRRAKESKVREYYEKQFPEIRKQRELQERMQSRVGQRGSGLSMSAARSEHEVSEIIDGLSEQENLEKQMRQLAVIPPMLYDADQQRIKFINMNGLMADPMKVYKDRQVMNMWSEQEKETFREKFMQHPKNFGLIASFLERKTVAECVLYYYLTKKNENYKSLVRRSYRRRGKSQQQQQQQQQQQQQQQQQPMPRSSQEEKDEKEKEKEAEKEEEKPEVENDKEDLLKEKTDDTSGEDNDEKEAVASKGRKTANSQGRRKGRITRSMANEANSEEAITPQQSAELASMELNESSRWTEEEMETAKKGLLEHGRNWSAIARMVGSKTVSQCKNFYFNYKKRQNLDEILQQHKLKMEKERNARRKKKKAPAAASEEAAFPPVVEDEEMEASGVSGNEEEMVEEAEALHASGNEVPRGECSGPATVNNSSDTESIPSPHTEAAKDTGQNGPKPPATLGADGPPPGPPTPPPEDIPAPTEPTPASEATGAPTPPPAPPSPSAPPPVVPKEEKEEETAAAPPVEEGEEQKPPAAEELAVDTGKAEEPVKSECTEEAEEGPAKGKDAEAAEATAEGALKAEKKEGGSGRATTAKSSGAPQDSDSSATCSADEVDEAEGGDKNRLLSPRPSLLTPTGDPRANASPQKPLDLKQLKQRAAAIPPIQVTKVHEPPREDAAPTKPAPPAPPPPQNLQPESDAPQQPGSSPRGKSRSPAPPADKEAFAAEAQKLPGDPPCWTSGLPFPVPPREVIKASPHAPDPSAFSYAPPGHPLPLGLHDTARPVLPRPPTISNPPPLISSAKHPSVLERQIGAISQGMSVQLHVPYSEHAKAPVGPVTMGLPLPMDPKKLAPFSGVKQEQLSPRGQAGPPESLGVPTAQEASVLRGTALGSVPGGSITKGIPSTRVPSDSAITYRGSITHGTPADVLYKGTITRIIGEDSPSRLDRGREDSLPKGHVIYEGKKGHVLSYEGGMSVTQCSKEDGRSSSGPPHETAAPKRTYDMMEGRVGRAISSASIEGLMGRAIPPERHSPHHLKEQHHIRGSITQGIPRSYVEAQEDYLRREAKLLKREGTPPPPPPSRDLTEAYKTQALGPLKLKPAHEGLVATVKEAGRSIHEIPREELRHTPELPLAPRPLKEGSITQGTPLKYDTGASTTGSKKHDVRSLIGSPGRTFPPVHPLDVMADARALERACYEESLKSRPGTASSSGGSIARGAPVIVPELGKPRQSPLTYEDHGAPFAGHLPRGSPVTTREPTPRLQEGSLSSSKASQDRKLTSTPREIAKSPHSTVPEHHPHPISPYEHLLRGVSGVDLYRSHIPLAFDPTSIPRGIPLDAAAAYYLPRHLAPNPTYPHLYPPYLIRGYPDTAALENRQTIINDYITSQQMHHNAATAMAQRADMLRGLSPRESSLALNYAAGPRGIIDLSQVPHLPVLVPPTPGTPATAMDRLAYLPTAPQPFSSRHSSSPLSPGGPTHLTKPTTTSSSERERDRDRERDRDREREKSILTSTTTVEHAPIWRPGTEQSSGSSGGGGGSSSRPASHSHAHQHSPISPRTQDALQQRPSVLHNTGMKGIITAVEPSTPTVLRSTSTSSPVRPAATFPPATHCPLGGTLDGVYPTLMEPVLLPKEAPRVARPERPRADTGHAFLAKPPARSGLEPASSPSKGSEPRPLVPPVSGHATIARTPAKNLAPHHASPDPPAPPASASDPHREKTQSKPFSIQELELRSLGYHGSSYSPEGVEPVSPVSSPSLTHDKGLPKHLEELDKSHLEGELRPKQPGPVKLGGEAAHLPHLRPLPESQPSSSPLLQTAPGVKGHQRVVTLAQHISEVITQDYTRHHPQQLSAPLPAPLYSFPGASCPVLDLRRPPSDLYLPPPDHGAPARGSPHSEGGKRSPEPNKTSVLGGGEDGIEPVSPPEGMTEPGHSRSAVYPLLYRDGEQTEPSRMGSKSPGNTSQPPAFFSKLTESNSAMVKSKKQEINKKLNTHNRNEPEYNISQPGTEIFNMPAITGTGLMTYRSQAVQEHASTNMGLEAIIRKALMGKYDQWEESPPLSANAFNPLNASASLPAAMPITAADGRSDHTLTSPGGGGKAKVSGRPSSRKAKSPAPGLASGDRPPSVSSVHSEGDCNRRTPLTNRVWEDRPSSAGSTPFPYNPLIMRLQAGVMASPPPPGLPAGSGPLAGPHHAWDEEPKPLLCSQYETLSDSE
Sequence of Histone deacetylase 9 (Q9UKV0 whole entry, the tested form may be a part): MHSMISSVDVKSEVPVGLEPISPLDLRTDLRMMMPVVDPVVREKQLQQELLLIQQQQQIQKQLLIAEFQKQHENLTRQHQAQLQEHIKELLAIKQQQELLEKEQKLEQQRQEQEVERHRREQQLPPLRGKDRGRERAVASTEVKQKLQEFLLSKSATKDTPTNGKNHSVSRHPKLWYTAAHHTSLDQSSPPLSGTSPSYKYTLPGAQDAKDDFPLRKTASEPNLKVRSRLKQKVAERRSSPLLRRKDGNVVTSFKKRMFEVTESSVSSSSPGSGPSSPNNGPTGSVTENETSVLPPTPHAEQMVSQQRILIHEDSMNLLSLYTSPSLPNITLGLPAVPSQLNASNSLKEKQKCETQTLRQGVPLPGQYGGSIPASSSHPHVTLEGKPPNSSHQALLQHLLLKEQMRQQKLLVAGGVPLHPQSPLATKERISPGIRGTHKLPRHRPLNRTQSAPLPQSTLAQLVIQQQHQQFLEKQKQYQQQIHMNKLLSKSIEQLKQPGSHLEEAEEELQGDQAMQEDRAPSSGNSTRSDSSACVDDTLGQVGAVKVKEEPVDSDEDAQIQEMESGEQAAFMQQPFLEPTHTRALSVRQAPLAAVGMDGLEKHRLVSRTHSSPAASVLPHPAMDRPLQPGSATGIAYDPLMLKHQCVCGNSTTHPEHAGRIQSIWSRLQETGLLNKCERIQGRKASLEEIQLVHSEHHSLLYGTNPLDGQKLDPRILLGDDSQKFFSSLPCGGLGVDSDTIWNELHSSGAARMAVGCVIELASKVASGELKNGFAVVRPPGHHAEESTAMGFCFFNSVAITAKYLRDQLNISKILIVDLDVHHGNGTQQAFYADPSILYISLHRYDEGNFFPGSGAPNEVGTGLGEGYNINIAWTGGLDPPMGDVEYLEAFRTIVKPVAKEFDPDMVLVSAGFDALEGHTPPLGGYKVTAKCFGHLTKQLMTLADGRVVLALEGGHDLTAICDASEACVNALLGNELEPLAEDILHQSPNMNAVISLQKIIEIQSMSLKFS
Sequence of Histone deacetylase 2 (Q92769 whole entry): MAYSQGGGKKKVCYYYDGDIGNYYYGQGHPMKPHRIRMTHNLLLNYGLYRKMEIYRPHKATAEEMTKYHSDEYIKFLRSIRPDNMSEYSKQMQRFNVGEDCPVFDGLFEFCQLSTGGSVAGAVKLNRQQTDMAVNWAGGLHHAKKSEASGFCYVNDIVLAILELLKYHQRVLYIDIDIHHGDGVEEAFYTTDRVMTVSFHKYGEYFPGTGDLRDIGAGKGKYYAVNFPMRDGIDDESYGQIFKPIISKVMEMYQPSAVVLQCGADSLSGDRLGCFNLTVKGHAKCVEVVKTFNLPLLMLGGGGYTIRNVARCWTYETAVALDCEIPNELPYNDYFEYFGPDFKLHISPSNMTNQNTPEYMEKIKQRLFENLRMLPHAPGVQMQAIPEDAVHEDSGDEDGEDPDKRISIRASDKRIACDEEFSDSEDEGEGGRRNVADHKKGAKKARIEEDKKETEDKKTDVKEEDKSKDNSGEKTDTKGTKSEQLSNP

SMILES | Activity (MCF7 [1]) | IC50 (A549) [nM] | IC50 (Histone deacetylase 7) [nM] | Activity (MCF7 [2]) | Activity (MCF7 [3]) | IC50 (MCF7 [4]) [nM] | IC50 (Histone deacetylase 2) [nM] | Activity (MCF7 [6]) | IC50 (Histone deacetylase 1) [nM] | IC50 (Histone deacetylase 9) [nM] | IC50 (Histone deacetylase 4) [nM] | inhibition (MCF7 [7]) | Activity (MCF7 [8]) | Activity (MCF7 [9]) | Activity (MCF7 [10]) | IC50 [11] [nM] | IC50 (Histone deacetylase 5 [12]) [nM] | inhibition (MCF7 [13]) | Activity (MCF7 [14]) | Activity (MCF7 [15]) | also measured
CC(C)(C)Nc1c(-c2cccc(C(=O)Nc3ccc(F)cc3N)c2)nc2ccccn12 | Active | > 10000 | 6100 | Active | Active | 700 | > 10000 | Active | > 10000 | 1300 | > 10000 | Active | Active | Active | Active | 2120 | 12400 | Active | Active | Active | inhibition [5]: Active
O=C(CCCCCCC(=O)Nc1ccccc1)NO | Active | – | – | Active | Active | – | – | – | – | – | – | – | inactive | – | – | – | – | – | Active | Active | Activity (MCF7 [16]): Active; Activity (MCF7 [17]): Active; Activity (MCF7 [18]): Active
CC(C)(C)Nc1c(-c2ccc(-c3noc(C(F)(F)F)n3)cc2)nc2ccccn12 | – | > 10000 | 6900 | – | – | > 10000 | > 10000 | Active | > 10000 | 2310 | 3580 | Active | Active | Active | Active | > 10000 | 812 | Active | Active | Active | Activity (MCF7 [19]): Active; Activity (MCF7 [20]): Active; Activity (MCF7 [21]): Active; Activity (MCF7 [22]): Active; Activity (MCF7 [23]): Active; inhibition (MCF7 [24]): Active; Activity (MCF7 [25]): Active
CC(C)(C)Nc1c(-c2cccc(-c3nc4cc(-c5noc(C(F)(F)F)n5)ccc4[nH]3)c2)nc2ccccn12 | – | > 10000 | 4850 | Active | – | > 10000 | > 10000 | inactive | > 10000 | 818 | 1650 | Active | Active | Active | – | > 10000 | 310 | Active | – | Active | Activity (MCF7 [16]): Active; Activity (MCF7 [19]): Active; Ratio IC50 (Histone deacetylase 5 [26]): > 33; Activity (MCF7 [20]): Active; Activity (MCF7 [21]): Active; Activity (MCF7 [22]): Active; Activity (MCF7 [23]): Active; inhibition (MCF7 [24]): Active; Activity (MCF7 [25]): Active
O=C(NC1CCN(Cc2ccccc2)C1)c1ccc(-c2noc(C(F)(F)F)n2)cc1 (stereo not given) | – | – | – | – | – | – | – | – | – | 48 | 19 | – | – | – | – | 1090 | 61 | – | – | – | –
COc1cccc2c1C(=O)c1c(O)c3c(c(O)c1C2=O)C[C@@](O)(C(=O)CO)C[C@@H]3O[C@H]1C[C@H](N)[C@H](O)[C@H](C)O1 [DOXORUBICIN] | – | 90 | – | – | – | 38 | – | – | – | – | – | – | – | – | – | – | – | – | – | – | –
